Values of other authors, collected in patent US5246706A, “Device for administering bimakalim transdermally” (Cygnus Therapeutic Systems, priority 1991, dated 1993).

Experiments:
[1] = test system: potassium channel; settings: background statement
[2] = known
[3] = octanol/phosphate buffer, pH 7.4; known

Row | Structure (SMILES) | potassium channel activating properties [1] | water solubility [2] | partition coefficient [3]
1 | CC1(C)Oc2ccc(C#N)cc2[C@@H](n2ccccc2=O)[C@@H]1O (single isomer, unassigned) [(-)-trans-3,4-dihydro-4-(1,2-dihydro-2-oxo-1-pyridyl)-3-hydroxy-2,2-dimethyl-2H-1-benzopyran-6-carbonitrile] | exhibits potassium channel activating properties | – | –
2 | CC1(C)C=C(n2ccccc2=O)c2cc(C#N)ccc2O1 [Bimakalim, 4-(1,2-dihydro-2-oxo-1-pyridyl)-2,2-dimethyl-2H-1-benzopyran-6-carbonitrile] | potassium channel activating drug | approximately 0.7 mg/ml | 27.0
